Legend:
Breast Cancer subpanel = experiment: cells
Outline: (§1)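 NCI-60 cell lines were exposed for 48 h to compound at 10^−4 to 10^−8 M, with growth measured by SRB staining against untreated controls. GI50, TGI and LC50 were derived per line, and subpanel MG_MID values were averaged with insensitive lines set at the top concentration. Selectivity index is full-panel MG-MID divided by subpanel MG-MID.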

CNS Cancer subpanel = experiment: cells
Outline: as §1

Colon Cancer subpanel = experiment: cells
Outline: as §1

Leukemia subpanel = experiment: cells
Outline: as §1

Melanoma subpanel = experiment: cells
Outline: as §1

[1] = test system: Non-Small Cell Lung Cancer subpanel; experiment: cells
Outline: as §1

Ovarian Cancer subpanel = experiment: cells
Outline: as §1

Prostate Cancer subpanel = experiment: cells
Outline: as §1

Renal Cancer subpanel = experiment: cells
Outline: as §1

RXF 393 [2] = settings: RXF 393 (Renal Cancer), 48 h, SRB
MOLT-4 = experiment: cells; settings: Homo sapiens, MOLT-4, 48 h
EKVX = experiment: cells; settings: Homo sapiens, 48 h
KM12 = experiment: cells; settings: Homo sapiens, KM12, 48 h
RXF 393 [3] = experiment: cells; settings: Homo sapiens, RXF 393, 48 h
DU-145 = experiment: cells; settings: Homo sapiens, DU-145, 48 h
Colo 205 = experiment: NCI DTP 60 cell line screen, SRB
SF-295 = experiment: NCI DTP 60 cell line screen, SRB
OVCAR-3 = experiment: NCI DTP 60 cell line screen, SRB
SK-OV-3 = experiment: NCI DTP 60 cell line screen, SRB
[4] = Homo sapiens, read-out: MG_MID, GI50
[5] = Homo sapiens, read-out: MG_MID, LC50

In the case of `O=C(O)CCN1C(=O)/C(=C/C(Cl)=C/c2ccc([N+](=O)[O-])cc2)SC1=S` [Compound 2h, 3-{5-[(Z,2Z)-2-Chloro-3-(4-nitrophenyl)-2-propenylidene]-4-oxo-2-thioxothiazolidin-3-yl}propanoic acid], the “SI (selectivity index), GI50” value (Breast Cancer subpanel) is reported as 2.63, the “SI (selectivity index), TGI” value (Breast Cancer subpanel) is reported as 0.63 and the “MG_MID, TGI” value (Breast Cancer subpanel; Breast Cancer panel mean) is reported as 21.1 µM. The GI50 (Breast Cancer subpanel; [4]) was 0.598 µM, the CC50 (Breast Cancer subpanel; [5]) was 49.6 µM and the “SI (selectivity index), LC50” value (Breast Cancer subpanel; full panel MG_MID / Breast Cancer subpanel MG_MID) was 1.31. The “SI (selectivity index), GI50” value (CNS Cancer subpanel) was 0.50, the “SI (selectivity index), TGI” value (CNS Cancer subpanel) was 0.75 and the “MG_MID, TGI” value (CNS Cancer subpanel; CNS Cancer panel mean) was 17.7 µM. For the same molecule, the GI50 (CNS Cancer subpanel; [4]) was 3.13 µM, the CC50 (CNS Cancer subpanel; [5]) was 84.9 µM and the “SI (selectivity index), LC50” value (CNS Cancer subpanel; full panel MG_MID / CNS Cancer subpanel MG_MID) was 0.77. The “SI (selectivity index), GI50” value (Colon Cancer subpanel) was 3.43, the “SI (selectivity index), TGI” value (Colon Cancer subpanel) was 0.57 and the “MG_MID, TGI” value (Colon Cancer subpanel; Colon Cancer panel mean) was 23.3 µM. For the same molecule, the GI50 (Colon Cancer subpanel; [4]) was 0.458 µM, the CC50 (Colon Cancer subpanel; [5]) was > 100 µM and the “SI (selectivity index), LC50” value (Colon Cancer subpanel; full panel MG_MID / Colon Cancer subpanel MG_MID) was <0.65. For the same molecule, the “SI (selectivity index), GI50” value (Leukemia subpanel) was 10.83, the “SI (selectivity index), TGI” value (Leukemia subpanel) was 2.45 and the “TI (Therapeutic Index)” value (Leukemia subpanel; GI50 (normal blood lymphocyte)/GI50 (Leukemia Panel)) was 376.14. The GI50 (Leukemia subpanel; [4]) was 0.145 µM, the CC50 (Leukemia subpanel; [5]) was > 100 µM and the “MG_MID, TGI” value (Leukemia subpanel; Leukemia panel mean) was 5.42 µM. For the same molecule, the “SI (selectivity index), LC50” value (Leukemia subpanel; full panel MG_MID / Leukemia subpanel MG_MID) was <0.65, the “SI (selectivity index), GI50” value (Melanoma subpanel) was 0.64 and the “SI (selectivity index), TGI” value (Melanoma subpanel) was 0.96. The GI50 (Melanoma subpanel; [4]) was 2.45 µM, the CC50 (Melanoma subpanel; [5]) was 53.1 µM and the “MG_MID, TGI” value (Melanoma subpanel; Melanoma panel mean) was 13.9 µM. For the same molecule, the “SI (selectivity index), LC50” value (Melanoma subpanel; full panel MG_MID / Melanoma subpanel MG_MID) was 1.22, the “SI (selectivity index), GI50” value [1] was 0.59 and the “SI (selectivity index), TGI” value [1] was 1.38. The GI50 [1, 4] was 2.65 µM, the CC50 [1, 5] was 61.4 µM and the “MG_MID, TGI” value ([1]; Non-Small Cell Lung Cancer panel mean) was 9.61 µM. The “SI (selectivity index), LC50” value ([1]; full panel MG_MID / Non-Small Cell Lung Cancer subpanel MG_MID) was 1.06, the “SI (selectivity index), GI50” value (Ovarian Cancer subpanel) was 0.74 and the “SI (selectivity index), TGI” value (Ovarian Cancer subpanel) was 1.05. The GI50 (Ovarian Cancer subpanel; [4]) was 2.13 µM, the CC50 (Ovarian Cancer subpanel; [5]) was 68.7 µM and the “MG_MID, TGI” value (Ovarian Cancer subpanel; Ovarian Cancer panel mean) was 12.7 µM. The “SI (selectivity index), LC50” value (Ovarian Cancer subpanel; full panel MG_MID / Ovarian Cancer subpanel MG_MID) was 0.95, the “SI (selectivity index), GI50” value (Prostate Cancer subpanel) was 2.77 and the “SI (selectivity index), TGI” value (Prostate Cancer subpanel) was 1.55. For the same molecule, the GI50 (Prostate Cancer subpanel; [4]) was 0.567 µM, the CC50 (Prostate Cancer subpanel; [5]) was 47.1 µM and the “MG_MID, TGI” value (Prostate Cancer subpanel; Prostate Cancer panel mean) was 8.59 µM. The “SI (selectivity index), LC50” value (Prostate Cancer subpanel; full panel MG_MID / Prostate Cancer subpanel MG_MID) was 1.38, the “SI (selectivity index), TGI” value (Renal Cancer subpanel) was 2.77 and the GI50 (Renal Cancer subpanel; [4]) was 0.99 µM. The CC50 (Renal Cancer subpanel; [5]) was 23.8 µM, the “MG_MID, TGI” value (Renal Cancer subpanel; Renal Cancer panel mean) was 4.81 µM and the “SI (selectivity index), LC50” value (Renal Cancer subpanel; full panel MG_MID / Renal Cancer subpanel MG_MID) was 2.73. The TGI (RXF 393 [2]) was 0.341 µM, the GI50 (MOLT-4) was 0.016 µM and the CC50 (MOLT-4; read-out: LC50) was > 100 µM. It also gave a GI50 (EKVX) of 0.334 µM, a CC50 (EKVX; read-out: LC50) of 55.6 µM and a GI50 (KM12) of 0.639 µM. For the same molecule, the CC50 (KM12; read-out: LC50) was > 100 µM, the GI50 (RXF 393 [3]) was 0.105 µM and the CC50 (RXF 393 [3]; read-out: LC50) was 1.73 µM. For the same molecule, the GI50 (DU-145) was 0.421 µM, the CC50 (DU-145; read-out: LC50) was 52.3 µM and the TGI (Colo 205; Colo 205 (Colon Cancer), 48 h, SRB) was > 100 µM. For the same molecule, the GI50 (Colo 205; Homo sapiens, COLO 205, 48 h) was 0.35 µM, the CC50 (Colo 205; Homo sapiens, COLO 205, 48 h, read-out: LC50) was > 100 µM and the GI50 (SF-295; Homo sapiens, SF-295, 48 h) was 3.36 µM. For the same molecule, the CC50 (SF-295; Homo sapiens, SF-295, 48 h, read-out: LC50) was > 100 µM, the TGI (SF-295; SF-295 (CNS Cancer), 48 h, SRB) was 21.6 µM and the GI50 (OVCAR-3; Homo sapiens, OVCAR-3, 48 h) was 0.135 µM. For the same molecule, the CC50 (OVCAR-3; Homo sapiens, OVCAR-3, 48 h, read-out: LC50) was 66.6 µM, the TGI (OVCAR-3; OVCAR-3 (Ovarian Cancer), 48 h, SRB) was 6.05 µM and the GI50 (SK-OV-3; Homo sapiens, SK-OV-3, 48 h) was 6.83 µM. It also gave a CC50 (SK-OV-3; Homo sapiens, SK-OV-3, 48 h, read-out: LC50) of 77.6 µM and a TGI (SK-OV-3; SK-OV-3 (Ovarian Cancer), 48 h, SRB) of 27.4 µM.
